Laboratory results taken from article PMC6158189, “A pharmacological probe identifies cystathionine β-synthase as a new negative regulator for ferroptosis” (Cell Death & Disease, 2018).

Experiments:
[1] = molecular target: hCSE (Homo sapiens, UniProt P32929); assay: H2S in HEK293T cells transiently expressing hCSE (AzMC probe); format: cell-based; settings: 10 μM, 8 h
Description: HEK293T cells were transiently transfected with empty vector (EV, i and ii), hCBS-FL (iii and iv) or hCSE (v and vi) plasmids, followed by incubation with DMSO (i–iii and v) or 10 μM CH004 (iv and vi) for 8 h before staining with 50 μM AzMC, a H2S-specific probe (“Materials and Methods” section). For larger fluorescent and bright-field images, please see Supplementary Figure 4. The expression levels of hCBS or hCSE in HEK293T cells after transient transfections were determined by western blotting using an anti-CBS antibody (3E1, 1:2000; Abnova) or anti-CSE antibody (1:500, GeneTex). The densities of protein bands for hCBS or hCSE in the blots were quantified with the ImageJ software (National Institutes of Health, Bethesda, MD, USA) and expressed as ratios of respective control (EV group). […] The fluorescent images of the H2S (blue) were accordingly quantified (“Materials and Methods” section) with ImageJ. […] A representative fluorescence image from three independent experiments is shown. […]
H2S levels in living cells were detected using a H2S-specific fluorescent probe according to a protocol described previously[31],[55]. […] After incubation with 50 μM AzMC at 37 °C for 30 min, the cells were washed 4 times with PBS, and the fluorescent images were recorded with excitation by 405 nm laser by using a A1Si (Nikon) confocal microscope. […]

[2] = test system: HEK293T cells; assay: intracellular ROS (DCFH-DA, flow cytometry); format: cell-based; settings: 12 h
Description: Fig. 5 In situ reduction of CBS activity and H2S in mitochondria by CH004 is coupled with an increase of intracellular ROS. a, b CH004 dose-dependently elevates ROS levels in both HepG2 (a) and HEK293T cells (b). The cells were treated with CH004 for 12 h or with 1 mM H2O2 for 30 min before the staining with DCFH-DA (Molecular Probes) and the analyzsis by flow cytometry (“Materials and Methods” section). Means ± SDS (n = 3). […] HepG2 cells were incubated with indicated inhibitors for 8 h before staining with the mitochondria tracker Mito-tracker® Green (Invitrogen) and the AzMC probe. Cyan represents the colocalization of H2S (blue) and the mitochondria tracker (green). Bars: 50 μm. d hCBS co-localizes with the mitochondria in HepG2 and HEK293T cells. HepG2 and HEK293T cells were stained with an anti-CBS antibody (3E1, 1:200; Abnova) for hCBS (red), Mito-tracker® Green for the mitochondria (green) and DAPI for the nucleus (blue). […]
To investigate the intracellular ROS levels, HEK293T or HepG2 cells were seeded in 6-well plates for one day, then incubated with the indicated inhibitors and 1 mM H2O2 for 12 h and 30 min, respectively. After trypsinization and one wash in PBS, the collected cells were resuspended in PBS and incubated with 100 μM probe DCFH-DA for 30 min at 37 °C before being analyzed using an LSR Fortessa flow cytometer.

hCSE, sequence (P32929 whole entry): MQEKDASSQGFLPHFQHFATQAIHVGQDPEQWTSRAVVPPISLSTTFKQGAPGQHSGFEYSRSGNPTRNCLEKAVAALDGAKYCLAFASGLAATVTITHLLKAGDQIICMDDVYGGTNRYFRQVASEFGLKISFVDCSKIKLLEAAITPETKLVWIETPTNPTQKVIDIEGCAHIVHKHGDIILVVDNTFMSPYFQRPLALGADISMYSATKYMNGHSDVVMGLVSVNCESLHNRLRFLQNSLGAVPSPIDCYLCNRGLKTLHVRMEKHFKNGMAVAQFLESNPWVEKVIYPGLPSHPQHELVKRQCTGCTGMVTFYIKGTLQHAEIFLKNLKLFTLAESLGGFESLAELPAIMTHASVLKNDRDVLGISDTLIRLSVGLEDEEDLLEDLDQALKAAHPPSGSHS

SMILES: Cn1nc(Cc2ccccc2)nc2c(=O)n(C)c(=O)nc1-2 [CH004, 3-benzyl-1,6-dimethylpyrimido[5,4-e][1,2,4]triazine-5,7(1H,6H)-dione]
- effect on production of H2S [1]: did not interfere
- maximum increase of cellular ROS [2]: ~ 2 fold
